Structures are written as SMILES.

For this test, the target named is recombinant mTOR (FLAG-tagged, residues 1362-2549) (Homo sapiens, UniProt P42345). The test is described as follows: In vitro mTOR kinase assay (Test (a), AlphaScreen). The format is biochemical. Particulars: ATP 20 μM, read-out: Test (a): IC50 versus mTOR kinase. The method in brief: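 AlphaScreen read-out: a phospho-T389 p70 S6K antibody on acceptor beads captures the phosphorylated biotin-peptide on donor beads, with signal loss indicating inhibition.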
Chain of recombinant mTOR (FLAG-tagged, residues 1362-2549) (P42345 1362-2549): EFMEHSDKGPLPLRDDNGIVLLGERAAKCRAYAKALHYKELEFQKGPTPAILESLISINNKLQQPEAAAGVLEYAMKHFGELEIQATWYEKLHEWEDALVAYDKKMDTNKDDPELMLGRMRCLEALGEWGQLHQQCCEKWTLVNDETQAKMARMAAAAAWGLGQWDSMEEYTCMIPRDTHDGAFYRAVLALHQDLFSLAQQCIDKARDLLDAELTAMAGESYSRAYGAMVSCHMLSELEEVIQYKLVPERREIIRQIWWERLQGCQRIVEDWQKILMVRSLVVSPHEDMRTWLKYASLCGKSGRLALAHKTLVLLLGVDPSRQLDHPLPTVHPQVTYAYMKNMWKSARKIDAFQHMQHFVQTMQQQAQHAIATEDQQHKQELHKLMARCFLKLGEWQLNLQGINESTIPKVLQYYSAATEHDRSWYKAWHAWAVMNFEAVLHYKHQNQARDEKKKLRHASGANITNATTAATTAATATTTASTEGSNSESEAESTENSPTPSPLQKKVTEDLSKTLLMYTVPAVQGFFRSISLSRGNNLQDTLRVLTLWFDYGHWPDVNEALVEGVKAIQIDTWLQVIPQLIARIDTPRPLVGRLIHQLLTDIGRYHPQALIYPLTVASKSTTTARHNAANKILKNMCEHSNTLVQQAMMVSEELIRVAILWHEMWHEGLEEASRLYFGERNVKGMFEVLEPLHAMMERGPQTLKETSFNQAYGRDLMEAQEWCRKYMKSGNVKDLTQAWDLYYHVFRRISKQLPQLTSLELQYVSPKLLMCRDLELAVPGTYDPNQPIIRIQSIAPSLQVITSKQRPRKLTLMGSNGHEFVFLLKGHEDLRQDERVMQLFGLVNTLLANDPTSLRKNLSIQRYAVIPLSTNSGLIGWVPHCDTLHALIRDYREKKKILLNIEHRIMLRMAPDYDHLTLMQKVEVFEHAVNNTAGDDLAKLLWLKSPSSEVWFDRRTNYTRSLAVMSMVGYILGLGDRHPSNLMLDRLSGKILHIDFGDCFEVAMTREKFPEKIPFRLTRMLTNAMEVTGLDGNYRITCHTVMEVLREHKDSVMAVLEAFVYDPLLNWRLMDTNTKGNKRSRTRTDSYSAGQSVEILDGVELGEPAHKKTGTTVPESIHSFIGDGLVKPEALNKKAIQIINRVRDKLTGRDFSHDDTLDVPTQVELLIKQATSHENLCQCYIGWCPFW
For `COc1ccc(NC(=O)Nc2ccc(-c3nc(CS(C)(=O)=O)cc(N4CCOC[C@@H]4C)n3)cc2)cc1` [Example 1a, 1-(4-methoxyphenyl)-3-[4-[4-[(3S)-3-methylmorpholin-4-yl]-6-(methylsulfonylmethyl)pyrimidin-2-yl]phenyl]urea], the half-inhibitory concentration (IC50) was found to be 62 nM.
`C[C@H]1COCCN1c1cc(CN2CC(O)C2)nc(-c2ccc(NC(=O)NC3CC3)cc2)n1` [Example 49k, 3-cyclopropyl-1-[4-[4-[(3-hydroxyazetidin-1-yl)methyl]-6-[(3S)-3-methylmorpholin-4-yl]pyrimidin-2-yl]phenyl]urea]: the concentration for half-maximal inhibition (IC50) was 14 nM.
In the case of `C[C@H]1COCCN1c1cc(CS(=O)(=O)CC#N)nc(-c2ccc(NC(=O)N(C)C)cc2)n1` [Example 13, 3-[4-[4-(Cyanomethylsulfonylmethyl)-6-[(3S)-3-methylmorpholin-4-yl]pyrimidin-2-yl]phenyl]-1,1-dimethyl-urea], the IC50 was determined as 2100 nM.
The result for `C[C@H]1COCCN1c1cc(C(C)(C)O)nc(-c2ccc(NC(=O)NCc3cnn(C)c3)cc2)n1` [Example 38, 1-[4-[4-(2-Hydroxypropan-2-yl)-6-[(3S)-3-methylmorpholin-4-yl]pyrimidin-2-yl]phenyl]-3-[(1-methylpyrazol-4-yl)methyl]urea] reads 1300 nM; that for `CCCCCNC(=O)Nc1ccc(-c2nc(CS(C)(=O)=O)cc(N3CCOCC3)n2)cc1` [Example 7j, 3-[4-[4-(methylsulfonylmethyl)-6-morpholin-4-yl-pyrimidin-2-yl]phenyl]-1-pentyl-urea], 1900 nM; that for `C[C@H]1COCCN1c1cc(CNC2CCN(C)CC2)nc(-c2ccc(NC(=O)Nc3ccccc3)cc2)n1` [Example 30c, 1-[4-[4-[(3S)-3-methylmorpholin-4-yl]-6-[[(1-methyl-4-piperidyl)amino]methyl]pyrimidin-2-yl]phenyl]-3-phenyl-urea], 1100 nM.
As for `Cc1n[nH]c(C)c1NC(=O)Nc1ccc(-c2nc(CS(C)(=O)=O)cc(N3CCOC[C@@H]3C)n2)cc1` [Example 22i, 1-(3,5-dimethyl-1H-pyrazol-4-yl)-3-[4-[4-[(3S)-3-methylmorpholin-4-yl]-6-(methylsulfonylmethyl)pyrimidin-2-yl]phenyl]urea], the IC50 stood at 4300 nM.
For the molecule `COc1cc(-c2nc(CS(C)(=O)=O)cc(N3CCOC[C@@H]3C)n2)ccc1NC(=O)N(C)C` [Example 2c, 3-[2-methoxy-4-[4-[(3S)-3-methylmorpholin-4-yl]-6-(methylsulfonylmethyl)pyrimidin-2-yl]phenyl]-1,1-dimethyl-urea], the 50% inhibitory concentration (IC50) turned out to be 1200 nM.
Take `CC(C)S(=O)(=O)Cc1cc(N2CCOCC2)nc(-c2ccc(NC(=O)NCCN(C)C)cc2)n1` [Example 20n, 3-(2-dimethylaminoethyl)-1-[4-[4-morpholin-4-yl-6-(propan-2-ylsulfonylmethyl)pyrimidin-2-yl]phenyl]urea]: the IC50 amounted to 860 nM.
For the molecule `CNC(=O)Nc1ncc(-c2nc(CS(C)(=O)=O)cc(N3CCOC[C@@H]3C)n2)s1` [Example 46, 3-Methyl-1-[5-[4-[(3S)-3-methylmorpholin-4-yl]-6-(methylsulfonylmethyl)pyrimidin-2-yl]-1,3-thiazol-2-yl]urea], the IC50 stood at 140 nM.
Turning to `COc1ccc(NC(=O)Nc2ccn(-c3nc(CS(C)(=O)=O)cc(N4CCOC[C@@H]4C)n3)n2)cc1` [Example 25a, 3-(4-methoxyphenyl)-1-[1-[4-[(3S)-3-methylmorpholin-4-yl]-6-(methylsulfonylmethyl)pyrimidin-2-yl]pyrazol-3-yl]urea], the IC50 is 4400 nM.
In the case of `CNC(=O)Nc1ccc(-c2nc(N3CCOCC3)cc(C(C)(C)S(C)(=O)=O)n2)cc1` [Example 21, 3-Methyl-1-[4-[4-(2-methylsulfonylpropan-2-yl)-6-morpholin-4-yl-pyrimidin-2-yl]phenyl]urea], the IC50 was 50 nM.
On to `CC(C)S(=O)(=O)Cc1cc(N2CCOC[C@@H]2C)nc(-c2ccc(NC(=O)NCCN(C)C)cc2)n1` [Example 20s, 3-(2-dimethylaminoethyl)-1-[4-[4-[(3S)-3-methylmorpholin-4-yl]-6-(propan-2-ylsulfonylmethyl)pyrimidin-2-yl]phenyl]urea], for which the IC50 is 620 nM.
Take `COc1ccc(NC(=O)Nc2ncc(-c3nc(CS(C)(=O)=O)cc(N4CCOC[C@@H]4C)n3)s2)cc1` [Example 46f, 3-(4-methoxyphenyl)-1-[5-[4-[(3S)-3-methylmorpholin-4-yl]-6-(methylsulfonylmethyl)pyrimidin-2-yl]-1,3-thiazol-2-yl]urea]: the IC50 amounted to 1200 nM.
For the molecule `C[C@H]1COCCN1c1cc(CS(C)(=O)=O)nc(-n2ccc(NC(=O)NC3CC3)n2)n1` [Example 24m, 3-cyclopropyl-1-[1-[4-[(3S)-3-methylmorpholin-4-yl]-6-(methylsulfonylmethyl)pyrimidin-2-yl]pyrazol-3-yl]urea], the IC50 was 650 nM.
Consider `C[C@H]1COCCN1c1cc(CNc2ccccc2)nc(-c2ccc(NC(=O)Nc3ccccc3)cc2)n1` [Example 30, 1-[4-[4-(Anilinomethyl)-6-[(3S)-3-methylmorpholin-4-yl]pyrimidin-2-yl]phenyl]-3-phenyl-urea], for which the IC50 was 900 nM.
Consider `CN(C(=O)Nc1ccc(-c2nc(CS(C)(=O)=O)cc(N3CCOCC3)n2)cc1)C1CC1` [Example 8e, 1-cyclopropyl-1-methyl-3-[4-[4-(methylsulfonylmethyl)-6-morpholin-4-yl-pyrimidin-2-yl]phenyl]urea], for which the IC50 was found to be 280 nM.
The result for `CCN(C)C(=O)Nc1ccc(-c2nc(CS(C)(=O)=O)cc(N3CCOCC3)n2)cc1` [Example 45l, 1-ethyl-1-methyl-3-[4-[4-(methylsulfonylmethyl)-6-morpholin-4-yl-pyrimidin-2-yl]phenyl]urea] reads 1100 nM; that for `C[C@H]1COCCN1c1cc(CS(C)(=O)=O)nc(-c2ccc(NC(=O)NCCCN(C)C)cc2)n1` [Example 35a, 3-(3-dimethylaminopropyl)-1-[4-[4-[(3S)-3-methylmorpholin-4-yl]-6-(methylsulfonylmethyl)pyrimidin-2-yl]phenyl]urea], 6400 nM.
In the case of `CC(=O)NCCS(=O)(=O)Cc1cc(N2CCOC[C@@H]2C)nc(-c2ccc(NC(=O)N(C)C)cc2)n1` [Example 16, N-[2-[[2-[4-(Dimethylcarbamoylamino)phenyl]-6-[(3S)-3-methylmorpholin-4-yl]pyrimidin-4-yl]methylsulfonyl]ethyl]acetamide], the half-maximal inhibitory concentration (IC50) came to 4000 nM.
The result for `C[C@H]1COCCN1c1cc(COc2ccccc2)nc(-c2ccc(NC(=O)Nc3ccccc3)cc2)n1` [Example 28, 1-[4-[4-[(3S)-3-Methylmorpholin-4-yl]-6-(phenoxymethyl)pyrimidin-2-yl]phenyl]-3-phenyl-urea] reads 4700 nM; that for `COc1cc(-c2nc(CS(C)(=O)=O)cc(N3CCOC[C@@H]3C)n2)ccc1NC(=O)Nc1ccc(F)cc1` [Example 1h, 3-(4-fluorophenyl)-1-[2-methoxy-4-[4-[(3S)-3-methylmorpholin-4-yl]-6-(methylsulfonylmethyl)pyrimidin-2-yl]phenyl]urea], 1200 nM; that for `Cc1oncc1NC(=O)Nc1ccc(-c2nc(CS(C)(=O)=O)cc(N3CCOC[C@@H]3C)n2)cc1` [Example 22e, 3-[4-[4-[(3S)-3-methylmorpholin-4-yl]-6-(methylsulfonylmethyl)pyrimidin-2-yl]phenyl]-1-(5-methyl-1,2-oxazol-4-yl)urea], 560 nM.
